The text below walks through data of paper PMC11574045, “A cofactor-induced repressive type of transcription factor condensation can be induced by synthetic peptides to suppress tumorigenesis” (The EMBO Journal, 2024).

Values joined by “and” are separate entries in the source; they are usually repeats but may differ in a detail not shown here. Equal values may be shown once.

The first assay has as its system GFP-TEAD4 condensates. Description: siRNA screening based on TEAD4 condensate. The assay is classed as cell-based. Particulars: Figure 2B source data; siRNA against the named gene; Z score based analysis. As for the experimental part: siRNA reagents were obtained from the Dharmacon Human ON-TARGETplus siRNA Smartpool Library (Thermo) as described previously (Tang et al, [2020]). […] Lipofectamine RNAiMAX reagent (Thermo) at a volume of 0.05 μl per well was then added to the siRNA-loaded plates. Subsequently, cells expressing GFP-TEAD4 were seeded into the plate at 2000 cells per well. After subsequent transfection for 48 h, the cells were fixed with 4% PFA at room temperature for 30 min. DAPI was used to identify individual nuclei. The plates were kept at 4 °C in the dark before being analyzed using the Opera system. Twenty focus fields per well were scanned and analyzed. Scrambled siRNA was used as an internal reference on each plate.
Consider RCOR3, for which the “Z score of condensed fraction” value amounted to 1.432.

The next assay has as its system HGC-27 cells. Description: siRNA screening based on cell growth. More on the design: species or system human. Particulars: Figure 2B source data; siRNA against the named gene; Z score based analysis. The method, then: For screening based on cell growth, HGC-27 cells (2000 per well) were seeded into a 96-well plate overnight. The individual siRNAs targeting 192 BioID-identified genes were then added into each well to a final concentration of 25 nM. After subsequent incubation for 48 h, the cells were analyzed using an ATP-based CellCounting-Lite^TM 2.0 reagent (Vazyme, Nanjing, China) according to the manufacturer’s instructions. The intracellular ATP contents were measured using an EnSight™ Multimode Microplate Reader (Perkin Elmer).
Consider RCOR3, for which the “Z score of cell growth” value was 0.05778.

A further assay relates to HEK293FT cells transfected with TF library. In words: Screening of TF condensates based on fluorescent puncta. The assay is classed as cell-based. Particulars: Figure 1B numerical data; TF library screen, one value per transcriptional factor. The method, then:
TF plasmids were automatically added to black-walled 384-well plates at 80 ng per well to reach a final concentration of 1.6 μg/ml. Polyethylenimine (PEI, Sigma) was then added to the plasmid-loaded plates at 240 ng per well (4.8 μg/ml). Subsequently, HEK293FT cells were seeded into the plate at 2000 cells per well. After 60 h, cells were cultured in medium with or without glucose for 12 h, and then fixed with 4% paraformaldehyde (PFA) at room temperature for 30 min. After three washes with PBS, fixed cells were permeabilized with 0.05% Triton X-100 for 15 min. Thereafter, cells were blocked with 5% BSA for 1 h, and then incubated overnight with anti-Flag (Sigma F3165, 1:200) and anti-GAL4 (Abbkine ABP57232, 1:200) primary antibodies at 4 °C. The cells were then gently washed with PBS, followed by being incubated with Alexa Fluor Plus 488 goat anti-mouse IgG secondary antibody (Thermo A32723, 1:400) or Alexa Fluor Plus 488 goat anti-rabbit IgG secondary antibody (Thermo A32731, 1:400) for 1 h. The plates were kept at 4 °C in the dark before being analyzed using an Opera System (Perkin Elmer). Fifty random fields per well were scanned and analyzed using the Columbus Plus Image Data Storage and Analysis System (Perkin Elmer).
Consider ZNF677, for which the “Z score of condensed fraction” value is given as -0.6787.

For ZNF680, the “Z score of condensed fraction” value is -0.6442.

Turning to DOUBLESEX, the “Z score of condensed fraction” value is listed as -0.4806.

For the molecule SP1, the “Z score of condensed fraction” value is on record as -0.5886.

Consider ZNF626, for which the “Z score of condensed fraction” value is 2.964.

For the molecule KLF16, the “Z score of condensed fraction” value is listed as -0.8935.

As for ZNF302, the “Z score of condensed fraction” value is -1.141.

Turning to ST18, the “Z score of condensed fraction” value is -0.7086.

As to ZNF404, the “Z score of condensed fraction” value is recorded as -1.0199.

On to RHOA, for which the “Z score of condensed fraction” value turned out to be 2.893.

As to VSX2, the “Z score of condensed fraction” value is 2.883.

NRBF2: the “Z score of condensed fraction” value is recorded as -0.07151.

For the molecule SOX11, the “Z score of condensed fraction” value amounted to 1.034.

As to ZNF257, the “Z score of condensed fraction” value came to 0.03056.

Take AP-2A: the “Z score of condensed fraction” value turned out to be 0.4428.

Take DMRTB1: the “Z score of condensed fraction” value is reported as 1.668.

ZNF432: the “Z score of condensed fraction” value is listed as -0.5974.

As to OTX1, the “Z score of condensed fraction” value was -0.7284.

With HDGF, the “Z score of condensed fraction” value is 2.149.

ZSCAN23: the “Z score of condensed fraction” value turned out to be 0.2133.

On to SP8, for which the “Z score of condensed fraction” value is recorded as -1.149.

With ZNF175, the “Z score of condensed fraction” value is on record as -0.614.

As for NR2E1/TLX, the “Z score of condensed fraction” value is reported as -0.5566.

On to CREB1, for which the “Z score of condensed fraction” value is given as -0.9562.

For the molecule HOXA10, the “Z score of condensed fraction” value is recorded as -0.1146.

Consider TLX2, for which the “Z score of condensed fraction” value is on record as -0.3265.

Take ZBTB16: the “Z score of condensed fraction” value was determined as 0.8279.

With GFI1, the “Z score of condensed fraction” value is on record as -0.2635.

Consider ZNF329, for which the “Z score of condensed fraction” value is on record as -0.4972.

With ZBTB14, the “Z score of condensed fraction” value was -0.8092.

For ZNF540, the “Z score of condensed fraction” value is -0.9698.

On to ELK3, for which the “Z score of condensed fraction” value stood at 0.04681.

With PRDM1, the “Z score of condensed fraction” value is given as -0.6129.

Turning to TULP4, the “Z score of condensed fraction” value was -0.4703.

As for ANKRD1, the “Z score of condensed fraction” value turned out to be 1.047.

As for PHOX2A, the “Z score of condensed fraction” value worked out at 0.2668.

On to NFIA, for which the “Z score of condensed fraction” value is recorded as 0.5032.

On to ZNF320, for which the “Z score of condensed fraction” value is reported as 0.5251.

In the case of PNRC2, the “Z score of condensed fraction” value was found to be 0.4868.

On to HOXD12, for which the “Z score of condensed fraction” value stood at 0.1237.

As for ZNF212, the “Z score of condensed fraction” value is -0.4443.

For the molecule EHF, the “Z score of condensed fraction” value is reported as -0.3879.

As to ZNF587, the “Z score of condensed fraction” value stood at 0.9024.

As to MYT1L, the “Z score of condensed fraction” value is on record as -0.407.

For the molecule HMGN3, the “Z score of condensed fraction” value was 1.967.

With ZNF529, the “Z score of condensed fraction” value is on record as -0.8409.

On to KLF7, for which the “Z score of condensed fraction” value was determined as 1.062.

LHX6: the “Z score of condensed fraction” value was -0.2026.

Consider HOXC10, for which the “Z score of condensed fraction” value is listed as -0.2628.

On to CTBP2, for which the “Z score of condensed fraction” value was found to be 1.5.

Regarding TFAP2D, the “Z score of condensed fraction” value was -0.6052.

With HOXA6, the “Z score of condensed fraction” value was found to be 1.681.

Regarding MAFG, the “Z score of condensed fraction” value turned out to be 0.65.

With ELK4, the “Z score of condensed fraction” value was determined as 0.361.

ATF4/CREB2: the “Z score of condensed fraction” value was found to be 2.625.

Take KLF15: the “Z score of condensed fraction” value was 0.8588.

Regarding XRCC6, the “Z score of condensed fraction” value is -0.8161.

PRDM13: the “Z score of condensed fraction” value is -0.08172.

For the molecule ZNF133, the “Z score of condensed fraction” value is -0.4329.

Take MAD2: the “Z score of condensed fraction” value is -0.8457.

On to NKX3-2, for which the “Z score of condensed fraction” value is on record as 1.062.

Take SOX17: the “Z score of condensed fraction” value came to 0.6231.

In the case of DMBX1, the “Z score of condensed fraction” value is on record as -0.1986.

Regarding ZNF230, the “Z score of condensed fraction” value came to 0.8569.

With ZNF433, the “Z score of condensed fraction” value is on record as -0.2089.

Regarding ZNF548, the “Z score of condensed fraction” value amounted to 1.7562.

For HOXD10, the “Z score of condensed fraction” value is -0.4162.

On to KDM5C, for which the “Z score of condensed fraction” value is 0.549.

ZNF549: the “Z score of condensed fraction” value is recorded as 2.12.

Regarding ZNF227, the “Z score of condensed fraction” value is recorded as -1.039.

Another assay deals with MYC / CYR61 promoter-enhancer interactions in HEK293FT cells. In words: Chromatin conformation capture (3C) assay. Particulars: VGLL4-overexpressing HEK293FT cells + 1,6-Hex; three biological replicates. The assay is classed as cell-based. As for the experimental part:
The 3C assay was performed following a protocol described previously ([…] et al, [2007]). Briefly, cells were incubated with 0.05% trypsin for 10 min before detaching. Collected cells were cross-linked with 2% formaldehyde for 10 min, followed by treatment with 0.125 M glycine for 5 min to quench the cross-linking reaction. Cells were then pelleted and incubated with a lysis buffer (10 mM Tris-HCl pH 7.5, 10 mM NaCl, 5 mM MgCl2 and 0.1 mM EGTA) at 4 °C for 15 min. Resulting pelleted nuclei were digested with Hind-III restriction enzyme (NEB) at 37 °C overnight and subsequently ligated with T4 DNA ligase (NEB) at 16 °C for 4 h. Thereafter, the samples were incubated at 65 °C overnight to de-crosslink the protein-DNA complexes and were subjected to phenol-chloroform extraction and ethanol precipitation to obtain the 3C templates. Primers flanking the Hind-III restriction sites located close to TEAD4-targeted gene CYR61 (Xie et al, [2019]) or MYC (Zanconato et al, [2015]) promoter (anchor primers) and enhancers were used to quantitively measure the promoter-enhancer interactions. The primers used are listed in Appendix Table S1.
Consider `OCCCCCCO` [1,6-Hex, 1,6-hexanediol], for which the “3C interaction promoter-enhance1 (MYC locus)” value is 0.8 and 0.75 and 0.85; the “3C interaction promoter-enhance 4 (MYC locus)” value is 0.8 and 0.65 and 0.74.

The subject of another assay is CTGF promoter occupancy in HEK293FT cells. Description: ChIP-qPCR. In kind it is cell-based. Particulars: VGLL4-overexpressing HEK293FT cells + 1,6-Hex; three biological replicates. The method, then:
ChIP was carried out following a procedure previously described (An et al, [2018]). Briefly, cells were first cross-linked with freshly prepared formaldehyde (final concentration 1.42%) for 15 min, followed by addition of glycine (125 mM) for 5 min at room temperature. After a two-round wash with cold PBS, cells were scraped and collected by centrifuge. Resulting pelleted cells were resuspended in 400 μl of ChIP lysis buffer (50 mM HEPES/KOH, pH 7.5; 140 mM NaCl; 1 mM EDTA; 1% Triton X-100; 0.1% Na-deoxycholate and protease inhibitors) and subjected to sonication with Bioruptor at high power for 15 cycles (30 s on and 30 s off for each cycle) to shear the chromatin. Samples were then further diluted twice with lysis buffer and the diluted samples were centrifuged to clear the supernatants. Meanwhile, eighty microliters of each of the supernatants were directly processed to extract total DNA as whole-cell input. […] Prewashed protein A/G beads (L2118; Santa Cuz) were added into these samples, which were then incubated for another 3 h. These incubated samples were washed five times with ChIP lysis buffer and then mixed with 100 μl of 10% chelex (1421253; Bio-Rad), followed by being boiled for 10 min and centrifuged at 4 °C for 1 min. Resulting supernatants were transferred to new tubes. Subsequently, another 120 μl of MilliQ water were added to each fraction of beads pellet, and the resulting mixtures were vortexed for 10 s, and then centrifuged again to spin down the beads. The supernatants were combined as templates for follow-up qPCR analysis.
A general note: In qPCR the cycle at which signal appears reflects the starting amount.
`OCCCCCCO` [1,6-Hex, 1,6-hexanediol]: the “ChIP-qPCR enrichment of CTCF on CTGF promoter” value is 0.0726 and 0.0717 and 0.0639; the “ChIP-qPCR enrichment of H3K27ac on CTGF promoter” value was 0.0982 and 0.0959 and 0.0952; the “ChIP-qPCR enrichment of RNA Pol II on CTGF promoter” value was 0.1941 and 0.1778 and 0.182.

For the next assay, the system named is CTGF mRNA. Description: RT-PCR of TEAD4 target genes. The assay is classed as cell-based. Particulars: GLUP-treated cells with or without 1,6-Hex, mRNA. As for the experimental part: For RT-PCR, total RNA was isolated from cells using RNA Isolator Total RNA Extraction Reagent (Vazyme) according to the manufacturer’s instructions. The isolated RNA was reverse transcribed into cDNA using HiScpt II (Vazyme). Quantitative RT-PCR was performed using a CFX96^TM Real-Time system (Bio-Rad) and SYBR Green PCR master mix (Yeasen). The fold change in the gene expression was calculated using the comparative Ct method, and three replicates were tested for each cDNA sample. ACTB was used as an internal reference. Transcript copies of TEAD4 were determined by generating standard curves using plasmid DNA (TEAD4). Each experiment was repeated at least three times. The sequences of the primers are listed in Appendix Table S1.
With `OCCCCCCO` [1,6-Hex, 1,6-hexanediol], the “Effect on GLUP-induced CTGF downregulation” value is on record as “obviously abrogated GLUP-induced downregulation of CTGF”.

The assay is the same for the next values; noted with them: VGLL4-overexpressing HEK293FT cells + 1,6-Hex 0.25% v/v; three biological replicates.
In the case of `OCCCCCCO` [1,6-Hex, 1,6-hexanediol], the “CTGF mRNA level” value was 1.31 and 0.86 and 1.18.
